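Tested at 5 concentrations; 48 h exposure; 96-well plates; endpoints linearly interpolated, else capped at highest concentration. Definition used: TGI = concentration required for complete inhibition of growth.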
Key:
Assay in all cases: NCI anticancer screen, dose series, 48 h
BT-549 breast = tested on: BT-549 breast
SN12C renal = tested on: SN12C renal
HCT-15 colon = tested on: HCT-15 colon
UO-31 renal = tested on: UO-31 renal
RPMI-8226 leukemia = tested on: RPMI-8226 leukemia
SK-MEL-5 melanoma = tested on: SK-MEL-5 melanoma
NCI-H226 lung = tested on: NCI-H226 lung
SF-268 CNS = tested on: SF-268 CNS
MDA-MB-231 breast = tested on: MDA-MB-231 breast
NCI-H23 lung = tested on: NCI-H23 lung
HT29 colon = tested on: HT29 colon
786-0 renal = tested on: 786-0 renal
PC-3 prostate = tested on: PC-3 prostate
COLO 205 colon = tested on: COLO 205 colon
MOLT-4 leukemia = tested on: MOLT-4 leukemia
UACC-62 melanoma = tested on: UACC-62 melanoma
HS 578T breast = tested on: HS 578T breast
DU-145 prostate = tested on: DU-145 prostate
A549 NSCLC = tested on: A549 NSCLC
HL-60(TB) leukemia = tested on: HL-60(TB) leukemia
A498 renal = tested on: A498 renal
NCI-H460 lung = tested on: NCI-H460 lung
SK-MEL-28 melanoma = tested on: SK-MEL-28 melanoma
MALME-3M melanoma = tested on: MALME-3M melanoma
HOP-62 NSCLC = tested on: HOP-62 NSCLC
HCT-116 colon = tested on: HCT-116 colon
MDA-N = tested on: MDA-N
SF-295 CNS = tested on: SF-295 CNS
MCF7 breast = tested on: MCF7 breast
CAKI-1 renal = tested on: CAKI-1 renal
SK-OV-3 ovarian = tested on: SK-OV-3 ovarian
SNB-75 CNS = tested on: SNB-75 CNS
HOP-92 NSCLC = tested on: HOP-92 NSCLC
SNB-19 CNS = tested on: SNB-19 CNS
NCI/ADR-RES ovarian = tested on: NCI/ADR-RES ovarian
ACHN renal = tested on: ACHN renal
NCI-H522 lung = tested on: NCI-H522 lung
KM12 colon = tested on: KM12 colon
M14 melanoma = tested on: M14 melanoma
MDA-MB-435 = tested on: MDA-MB-435
IGROV1 ovarian = tested on: IGROV1 ovarian
T-47D breast = tested on: T-47D breast
OVCAR-8 ovarian = tested on: OVCAR-8 ovarian
SK-MEL-2 melanoma = tested on: SK-MEL-2 melanoma
EKVX NSCLC = tested on: EKVX NSCLC
CCRF-CEM leukemia = tested on: CCRF-CEM leukemia
LOX IMVI melanoma = tested on: LOX IMVI melanoma
OVCAR-4 ovarian = tested on: OVCAR-4 ovarian
SR leukemia = tested on: SR leukemia
HCC-2998 colon = tested on: HCC-2998 colon
OVCAR-3 ovarian = tested on: OVCAR-3 ovarian
K-562 leukemia = tested on: K-562 leukemia
SF-539 CNS = tested on: SF-539 CNS
RXF 393 renal = tested on: RXF 393 renal
TK-10 renal = tested on: TK-10 renal
U251 CNS = tested on: U251 CNS
SW-620 colon = tested on: SW-620 colon
UACC-257 melanoma = tested on: UACC-257 melanoma
OVCAR-5 ovarian = tested on: OVCAR-5 ovarian
M19-MEL melanoma = tested on: M19-MEL melanoma
DLD-1 colon = tested on: DLD-1 colon
DMS 273 small cell lung = tested on: DMS 273 small cell lung
DMS 114 small cell lung = tested on: DMS 114 small cell lung

Measured: TGI

CCOC(=O)C1C2C1C1C(C(=O)OCC)C21 (stereo not given)
not listed: M19-MEL melanoma | DLD-1 colon | DMS 273 small cell lung | DMS 114 small cell lung
> 100 µM: all other assays above

COc1ccc(CNc2cnc3cc(N)ccc3n2)cc1OC
not listed: BT-549 breast | MDA-MB-231 breast | NCI-H23 lung | PC-3 prostate | UACC-62 melanoma | HS 578T breast | DU-145 prostate | A498 renal | MDA-N | MCF7 breast | SK-OV-3 ovarian | HOP-92 NSCLC | NCI/ADR-RES ovarian | MDA-MB-435 | IGROV1 ovarian | T-47D breast | RXF 393 renal | U251 CNS | OVCAR-5 ovarian
> 100 µM: all other assays above

Cc1nc(-c2ccc(Cl)cc2)cn2c1nc1ccccc12
> 31.6 µM: HL-60(TB) leukemia | CCRF-CEM leukemia
> 21.4 µM: T-47D breast
not listed: M19-MEL melanoma | DLD-1 colon | DMS 273 small cell lung | DMS 114 small cell lung
> 100 µM: all other assays above

CCCS(=O)OC1C(C2COC(C)(C)O2)OC2OC(C)(C)OC21 (stereo not given)
27.8 µM: 786-0 renal
37.8 µM: M14 melanoma
28.3 µM: UO-31 renal
21.4 µM: LOX IMVI melanoma
29.3 µM: OVCAR-8 ovarian | OVCAR-3 ovarian
12.8 µM: RPMI-8226 leukemia
26.9 µM: ACHN renal
> 62.1 µM: NCI-H460 lung
28 µM: CAKI-1 renal
27.7 µM: SK-MEL-5 melanoma
32.7 µM: SK-MEL-28 melanoma
> 69.6 µM: T-47D breast
46.2 µM: NCI-H226 lung
24.5 µM: BT-549 breast
35.2 µM: UACC-62 melanoma
26.1 µM: OVCAR-5 ovarian
24 µM: PC-3 prostate
46.1 µM: NCI/ADR-RES ovarian
25.9 µM: NCI-H522 lung
36.1 µM: SF-295 CNS
25.5 µM: RXF 393 renal
37.4 µM: SK-MEL-2 melanoma
27.3 µM: MCF7 breast
4.34 µM: SR leukemia
28.2 µM: KM12 colon | UACC-257 melanoma
34.7 µM: OVCAR-4 ovarian
32.5 µM: HOP-62 NSCLC
31.8 µM: SN12C renal
41.6 µM: HCT-15 colon
19.4 µM: HCT-116 colon
> 70.6 µM: MDA-N
31.3 µM: TK-10 renal
> 86.8 µM: SK-OV-3 ovarian
62.4 µM: SF-268 CNS
17.9 µM: HT29 colon
6.57 µM: MOLT-4 leukemia
18 µM: MALME-3M melanoma
28.4 µM: U251 CNS
> 100 µM: HS 578T breast | K-562 leukemia
32.6 µM: MDA-MB-231 breast | HCC-2998 colon
22.8 µM: HOP-92 NSCLC
47.3 µM: DU-145 prostate
49.6 µM: A549 NSCLC
21.5 µM: CCRF-CEM leukemia
23.4 µM: NCI-H23 lung | MDA-MB-435
32.8 µM: SW-620 colon
> 48.8 µM: SNB-75 CNS
38.4 µM: SF-539 CNS
33.2 µM: IGROV1 ovarian
97 µM: A498 renal
27.2 µM: COLO 205 colon
30.8 µM: SNB-19 CNS
32 µM: EKVX NSCLC

Source: PubChem BioAssay (NCI)
